ChEMBL document CHEMBL4257456, “Molecular modeling study, synthesis and biological evaluation of combretastatin A-4 analogues as anticancer agents and tubulin inhibitors” (Medchemcomm, 2018)

Experiments:
MGC-803 = test: Antiproliferative activity against human MGC803 cells after 72 hrs by CCK-8 assay; format: functional, cell-based; conditions: MGC-803, 72 h
[1] = Inhibition of pig brain tubulin polymerization by spectrophotometric analysis; design: species or system Sus scrofa
HCT-116 = test: Antiproliferative activity against human HCT116 cells after 72 hrs by CCK-8 assay; format: functional, cell-based; conditions: HCT-116, 72 h
HeLa = test: Antiproliferative activity against human HeLa cells after 72 hrs by CCK-8 assay; format: functional, cell-based
MCF7 = test: Antiproliferative activity against human MCF7 cells after 72 hrs by CCK-8 assay; format: functional, cell-based; conditions: MCF7, 72 h
HepG2 = test: Antiproliferative activity against human HepG2 cells after 72 hrs by CCK-8 assay; format: functional, cell-based; conditions: HepG2, 72 h
A549 = test: Antiproliferative activity against human A549 cells after 72 hrs by CCK-8 assay; format: functional, cell-based; conditions: A549, 72 h

Row | Structure (SMILES) | IC50 (MGC-803) [µM] | IC50 [1] [nM] | IC50 (HCT-116) [µM] | IC50 (HeLa) [µM] | IC50 (MCF7) [nM] | IC50 (HepG2) [µM] | IC50 (A549) [µM]
1 | COc1ccc(-c2oc3cc(OC)c(F)cc3c2C(=O)c2cc(OC)c(OC)c(OC)c2)cc1 | 47.3 | > 200000 | 78.2 | 19.1 | 6490 | 4.75 | 6.87
2 | CCOc1ccc(-c2[nH]c3cc(OC)ccc3c2C(=O)c2cc(OC)c(OC)c(OC)c2)cc1 |  | > 200000 |  |  |  |  | 
3 | CCOc1ccc(-c2oc3cc(OC)ccc3c2C(=O)c2cc(OC)c(OC)c(OC)c2)cc1 | 9.97 | 860 | 12.6 | 8.99 | 910 | 1.31 | 1.37
4 | COc1ccc(/C=C\c2cc(OC)c(OC)c(OC)c2)cc1O [COMBRETASTATIN A4] | 1.76 | 880 | 9 | 11.3 | 670 | 16 | 5.99
5 | COc1ccc(/C=C\c2cc(OC)c(OC)c(OC)c2)cc1OP(=O)(O)O [FOSBRETABULIN DISODIUM] | 0.47 | 4790 | 0.24 | 0.56 | 960 | 0.27 | 0.4
